Assay results published in ChEMBL document CHEMBL5390234 (Bioorg Med Chem Lett, 2023).
In brackets after ≈: the same amount, converted by molar mass.

Columns and labels:
[1] = Apparent permeability of compound across apical to basolateral in human Caco-2 cells at 10 uM; assay type: ADME, cell-based
[2] = Volume of distribution at steady state in mouse; assay type: ADME, organism-based; conditions: in vivo, read-out: Vdss
[3] = Oral bioavailability in mouse at 1 mg/kg or 0.5 mg/kg, iv; assay type: ADME, organism-based; conditions: in vivo
[4] = Solubility of the compound in aqueous phosphate buffer at pH 7.4 incubated for 24 hrs; assay type: physicochemical
[5] = Oral bioavailability in mouse at 30 mg/kg; assay type: ADME, organism-based; conditions: in vivo
[6] = AUC (0 to t) in mouse plasma at 1 mg/kg, po; assay type: ADME, organism-based; design: dose 1 mg/kg, route po
[7] = AUC (0 to t) in mouse plasma at 30 mg/kg, po; assay type: ADME, organism-based; design: dose 30 mg/kg, route po
[8] = Lipophilicity, logD of compound at pH 7.4; assay type: physicochemical; conditions: buffer

Structure (SMILES) | Papp A→B at 10 µM [1] | Vd [2] | logD [8] | further results
CCN(Cc1nc2c(N)nc3cc(-c4cc[nH]n4)ccc3c2[nH]1)C(C)=O [BMS-986299] | 0.6 ×10⁻⁶ cm/s | 0.8 L/kg | 1.8 | –
CCNc1nc(N)nc2cc(-c3cc[nH]n3)ccc12 | – | – | 1.8 | –
CCNc1nc(N)nc2nc(-c3ccc[nH]c3=O)ccc12 | – | – | 0.8 | –
CCNc1nc(N)nc2cc(-n3cccn3)cnc12 | – | – | 2.1 | –
CCNc1cc(N)nc2cc(-n3cccn3)ccc12 | – | – | 1.5 | –
CC1(Nc2nc(N)nc3cc(-c4cc[nH]n4)ccc23)CC1 | 9 ×10⁻⁶ cm/s | 4.7 L/kg | – | bioavailability [3]: 25%; solubility at 24 h [4]: > 1000 µM
Nc1cc(NCCn2cccn2)c2ccccc2n1 | – | – | 0.5 | –
Nc1nc(NCCn2cccn2)c2ccc(-c3cc[nH]n3)nc2n1 | – | – | 1.4 | –

The next lines start with results.

Papp A→B at 10 µM [1] | Vd [2] | logD [8] | Structure (SMILES) | further results
3.7 ×10⁻⁶ cm/s | 13 L/kg | – | Nc1nc(NC2CC2)c2ccc(-c3cc[nH]n3)nc2n1 | bioavailability [3]: 7.5%; solubility at 24 h [4]: > 1000 µM
4.2 ×10⁻⁶ cm/s | 7.8 L/kg | – | CC1(Nc2nc(N)nc3nc(-c4cc[nH]n4)ccc23)CC1 | bioavailability [3]: 56%; solubility at 24 h [4]: 910 µM (≈ 256 µg/mL); bioavailability [5]: 70%; AUC(0-t) [6]: 0.2 µM·h; AUC(0-t) [7]: 7.5 µM·h
– | – | 1.8 | CCNc1nc(N)nc2cc(-n3cccn3)ccc12 | –
– | – | 2 | CCNc1nc(N)nc2nc(-n3cccn3)ccc12 | –
– | – | 1.4 | CCNc1nc(N)nc2nc(-c3cc[nH]n3)ccc12 | –
2.3 ×10⁻⁶ cm/s | 3.1 L/kg | 1.7 | Nc1cc(NCCn2cccn2)c2ccc(-n3cccn3)cc2n1 | bioavailability [3]: 1.1%
– | – | 1.8 | c1cnn(CCNc2ccnc3cc(-n4cccn4)ccc23)c1 | –
